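These data come from cells grown in 96-well plates and exposed to compound for 48 hours at five concentrations. Here, GI50 denotes the concentration required for 50% inhibition of growth. The concentration for full growth arrest is given as TGI.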
How the values were obtained:
Test in all cases: NCI tumour cell line growth inhibition, 48 h
[1] = test system: A498 renal
[2] = test system: A549 NSCLC
[3] = test system: ACHN renal
[4] = test system: CCRF-CEM leukemia
[5] = test system: COLO 205 colon
[6] = test system: DU-145 prostate
[7] = test system: EKVX NSCLC
[8] = test system: HCC-2998 colon
[9] = test system: HCT-116 colon
[10] = test system: HCT-15 colon
[11] = test system: HOP-62 NSCLC
[12] = test system: K-562 leukemia
[13] = test system: KM12 colon
[14] = test system: LOX IMVI melanoma
[15] = test system: M14 melanoma
[16] = test system: MDA-MB-231 breast
[17] = test system: MDA-N
[18] = test system: MOLT-4 leukemia
[19] = test system: NCI-H226 lung
[20] = test system: NCI-H23 lung
[21] = test system: NCI-H460 lung
[22] = test system: NCI-H522 lung
[23] = test system: NCI/ADR-RES ovarian
[24] = test system: OVCAR-3 ovarian
[25] = test system: OVCAR-4 ovarian
[26] = test system: OVCAR-5 ovarian
[27] = test system: OVCAR-8 ovarian
[28] = test system: PC-3 prostate
[29] = test system: RXF 393 renal
[30] = test system: SF-295 CNS
[31] = test system: SF-539 CNS
[32] = test system: SK-MEL-2 melanoma
[33] = test system: SK-MEL-28 melanoma
[34] = test system: SK-MEL-5 melanoma
[35] = test system: SN12C renal
[36] = test system: SNB-75 CNS
[37] = test system: T-47D breast
[38] = test system: UACC-257 melanoma
[39] = test system: UACC-62 melanoma
[40] = test system: 786-0 renal
[41] = test system: BT-549 breast
[42] = test system: CAKI-1 renal
[43] = test system: HL-60(TB) leukemia
[44] = test system: HOP-92 NSCLC
[45] = test system: HS 578T breast
[46] = test system: HT29 colon
[47] = test system: IGROV1 ovarian
[48] = test system: MALME-3M melanoma
[49] = test system: MCF7 breast
[50] = test system: MDA-MB-435
[51] = test system: RPMI-8226 leukemia
[52] = test system: SF-268 CNS
[53] = test system: SK-OV-3 ovarian
[54] = test system: SNB-19 CNS
[55] = test system: SR leukemia
[56] = test system: SW-620 colon
[57] = test system: TK-10 renal
[58] = test system: U251 CNS
[59] = test system: UO-31 renal

## CCCCCCCCNC(=S)/N=C/c1c(O)c2ccccc2oc1=O
[1]
  TGI: 32.2 µM
[2]
  TGI: 35.2 µM
[3]
  TGI: 29.5 µM
[4]
  TGI: 30.9 µM
[5]
  TGI: 32.3 µM
[6]
  TGI: 33.6 µM
[7]
  TGI: 66.9 µM
[8]
  TGI: 26.7 µM
[9]
  TGI: 31 µM
[10]
  TGI: 28.4 µM
[11]
  TGI: 32.2 µM
[12]
  TGI: 40.1 µM
[13]
  TGI: 29.1 µM
[14]
  TGI: 26 µM
[15]
  TGI: 34.6 µM
[16]
  TGI: 32.4 µM
[17]
  TGI: 34.3 µM
[18]
  TGI: 33.7 µM
[19]
  TGI: 51.7 µM
[20]
  TGI: 39.7 µM
[21]
  TGI: 30.3 µM
[22]
  TGI: 22.4 µM
[23]
  TGI: 47.4 µM
[24]
  TGI: 29.1 µM
[25]
  TGI: 29.4 µM
[26]
  TGI: 28.1 µM
[27]
  TGI: 52.4 µM
[28]
  TGI: 28.5 µM
[29]
  TGI: 34.8 µM
[30]
  TGI: 34 µM
[31]
  TGI: 36.6 µM
[32]
  TGI: 48 µM
[33]
  TGI: 31.1 µM
[34]
  TGI: 30.4 µM
[35]
  TGI: 38.7 µM
[36]
  TGI: 34.2 µM
[37]
  TGI: > 100 µM
[38]
  TGI: 40.9 µM
[39]
  TGI: 28.6 µM

## COC(=O)[C@@]1(O)C[C@H]2O[C@]1(C)n1c3ccccc3c3c4c(c5c6ccccc6n2c5c31)C(=O)NC4
[40]
  GI50: 0.312 µM
  TGI: 1.67 µM
[1]
  GI50: 0.0712 µM
  TGI: 0.585 µM
[2]
  GI50: 0.24 µM
  TGI: 2.85 µM
[3]
  GI50: 0.0368 µM
  TGI: 3.07 µM
[41]
  GI50: 0.295 µM
  TGI: 1.91 µM
[42]
  GI50: 0.0149 µM
  TGI: 0.217 µM
[4]
  GI50: 0.321 µM
  TGI: 1.64 µM
[5]
  GI50: 0.231 µM
  TGI: 0.692 µM
[6]
  GI50: 0.161 µM
  TGI: 5.9 µM
[7]
  GI50: 1.92 µM
  TGI: 7.58 µM
[8]
  GI50: 0.609 µM
  TGI: 2.8 µM
[9]
  GI50: 0.102 µM
  TGI: 2.24 µM
[10]
  GI50: 0.0706 µM
  TGI: 2.5 µM
[43]
  GI50: 0.868 µM
[11]
  GI50: 0.169 µM
  TGI: 1.81 µM
[44]
  GI50: 0.188 µM
  TGI: 0.88 µM
[45]
  GI50: 0.248 µM
  TGI: 2.06 µM
[46]
  GI50: 0.212 µM
  TGI: 2.09 µM
[47]
  GI50: 0.17 µM
  TGI: 3.28 µM
[12]
  GI50: 0.0397 µM
  TGI: 1.28 µM
[13]
  GI50: 0.0269 µM
  TGI: 1.07 µM
[14]
  GI50: 0.197 µM
  TGI: 1.21 µM
[15]
  GI50: 0.0355 µM
  TGI: 1.15 µM
[48]
  GI50: 0.186 µM
  TGI: 1.52 µM
[49]
  GI50: 0.194 µM
  TGI: 4.34 µM
[16]
  GI50: 0.429 µM
  TGI: 2.88 µM
[50]
  GI50: 0.0745 µM
  TGI: 1.6 µM
[18]
  GI50: 0.0678 µM
  TGI: 0.825 µM
[19]
  GI50: 0.32 µM
  TGI: 1.72 µM
[20]
  GI50: 0.212 µM
  TGI: 2.36 µM
[21]
  GI50: 0.121 µM
  TGI: 1.38 µM
[22]
  GI50: 0.0616 µM
  TGI: 1.71 µM
[23]
  GI50: 0.415 µM
  TGI: 3.56 µM
[24]
  GI50: 0.587 µM
  TGI: 3.22 µM
[25]
  GI50: 1.24 µM
  TGI: 2.76 µM
[26]
  GI50: 0.21 µM
  TGI: 8.12 µM
[27]
  GI50: 0.589 µM
  TGI: 4.08 µM
[28]
  GI50: 0.251 µM
  TGI: 2.95 µM
[51]
  GI50: 0.0784 µM
  TGI: 1.33 µM
[29]
  GI50: 0.159 µM
  TGI: 1.49 µM
[52]
  GI50: 0.63 µM
  TGI: 3.17 µM
[30]
  GI50: 0.661 µM
  TGI: 2.31 µM
[31]
  GI50: 0.356 µM
  TGI: 1.42 µM
[32]
  GI50: 0.0476 µM
  TGI: 1.61 µM
[33]
  GI50: 0.203 µM
  TGI: 1.26 µM
[53]
  GI50: 0.0336 µM
  TGI: 0.926 µM
[35]
  GI50: 0.074 µM
  TGI: 2.15 µM
[54]
  GI50: 1.1 µM
  TGI: 4.05 µM
[36]
  GI50: 0.185 µM
  TGI: 1.04 µM
[55]
  GI50: 0.0686 µM
  TGI: 1.75 µM
[56]
  GI50: 0.147 µM
  TGI: 3.11 µM
[37]
  GI50: 0.0805 µM
  TGI: 2.05 µM
[57]
  GI50: 0.0284 µM
  TGI: 1.39 µM
[58]
  GI50: 1.02 µM
  TGI: 3.05 µM
[38]
  GI50: 0.527 µM
  TGI: 3.33 µM
[39]
  GI50: 0.132 µM
  TGI: 1.55 µM
[59]
  GI50: 0.0256 µM
  TGI: 1.37 µM

— PubChem BioAssay (NCI)
